Laboratory results: patent US11648239B2, “Azophenols as ERG oncogene inhibitors” (The Henry M. Jackson Foundation for the Advancement of …, priority 2015, dated 2023)

Experiments:
VCaP cells = test: VCaP cell growth inhibition; assay type: cell-based; conditions: for inhibition of VCaP cell growth: 0.3, 0.6, 1.0, 3.0 and 10.0 μM, FIG. 25-30; for IC50: VCaP, metastatic prostate cancer, TMPRSS2-ERG fusion, N/D = assay performed, inhibition not detected at the tested levels
Experimental: Approximately 48 hours following plating of cells, the appropriate test compound is added to each well of the tissue culture dish at a predetermined concentration. The medium was replenished every 24 hours with fresh growth medium containing the same concentration of the same test compound for indicated period of the cell growth inhibition assay. Percent cell growth inhibition was calculated using a hemocytometer for estimating cell density in each of the test wells of the tissue culture dish and trypan blue dye exclusion microscopy and photography to estimate the fraction of viable cells in each test well.
To investigate whether the azophenol compounds selectively arrested the growth of ERG positive cancer cells (VCaP), VCaP cells were cultured to achieve cells in logarithmic growth and these cells were then plated in 6 well tissue culture dishes in duplicates at a cell density of 0.2×10^6 cells per well. The plated cells were exposed to 0, 0.2, 0.4, 0.6, 0.8 and 1 μM concentrations of each compound for a period of 8 days. At the end of time period, cells were recovered from the test plate, washed, trypsinized and the cell density of viable cells were determined with trypan blue dye staining method and automated cell counter Bio-Rad TC10. The IC50 of cell growth inhibition of each compound was determined by trypsinizing the cells at the end of the experiment and counting the cells by using the automated cell counter (Bio-Rad TC10 automated cell counter). The average cell numbers of each concentration were used to calculate the IC50 of each compound with the GraphPad Prism 6 software.

ERG protein = biological target: T1, ERG protein (Homo sapiens, UniProt P11308); test: Inhibition of ERG protein in VCaP cells (Western blot); assay type: cell-based; conditions: VCaP, metastatic prostate cancer, TMPRSS2-ERG fusion; N/D = assay performed, inhibition not detected at the tested levels
T1 construct: host or cells: VCaP
T1 sequence (P11308 33-479 limits assumed): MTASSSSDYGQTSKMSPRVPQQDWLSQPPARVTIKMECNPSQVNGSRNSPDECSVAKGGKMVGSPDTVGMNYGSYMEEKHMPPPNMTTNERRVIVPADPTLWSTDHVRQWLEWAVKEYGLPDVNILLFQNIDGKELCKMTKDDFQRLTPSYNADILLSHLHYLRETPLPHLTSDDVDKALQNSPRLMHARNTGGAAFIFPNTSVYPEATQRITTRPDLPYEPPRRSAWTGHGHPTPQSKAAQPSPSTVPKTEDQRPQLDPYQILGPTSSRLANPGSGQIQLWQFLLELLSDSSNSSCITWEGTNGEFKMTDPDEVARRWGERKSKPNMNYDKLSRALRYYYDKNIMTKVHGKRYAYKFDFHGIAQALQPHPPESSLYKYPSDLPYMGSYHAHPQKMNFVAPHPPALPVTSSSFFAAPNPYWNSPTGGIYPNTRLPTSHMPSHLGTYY
Experimental: The TMPRSS2-ERG fusion positive prostate cancer cell line, VCaP (ATCC), was used to identify the test compound inhibitors of ERG expression. Cells were grown in medium using conditions prescribed by the vendor. VCaP cells in logarithmic growth were seeded in a tissue culture dish at a cell density of 2×10^6 cells per plate. Following 48 hours incubation at 37° C., cells were exposed for a period of 48 hours with 0, 0.05, 0.25 and 0.5 μM concentrations of each test azophenol compound. The inhibition of ERG expression was evaluated by an In-cell Western blot assay (LI-COR Biosciences, Lincoln, Nebr.) using the ERG specific CPDR ERG-MAb as further described below.
Inhibition of ERG protein expression by the test compounds were determined by Western blot analysis. The ERG specific monoclonal antibody CPDR ERG-MAb was used as the primary antibody. In brief, Western blot was performed by running a fixed amount of total protein extracted from cell lysates of the treated cells using (4-12% Bis-Tris) gel by electrophoresis, followed by transfer to membrane and incubation with primary antibody and continued with HRP-conjugated secondary antibody. Cultured cells were treated at specific dosages with each of the tested ERG inhibitors. Following incubation of the treated cells for an indicated time period, cells were lysed using Mammalian Protein Extraction Reagent (M-PER; Pierce, Rockford, Ill.) containing a protease inhibitor cocktail and phosphatase inhibitor cocktails I & III (Sigma, St Louis, Mo.). Cell lysates containing 50 μg of total protein were electrophoresed through 4-12% Bis-Tris Gel (Invitrogen, Carlsbad, Calif.) and the cellular proteins were transferred to PVDF membrane (Invitrogen, Carlsbad, Calif.). Membranes were incubated at 4° C. for 12 hours with primary antibodies for AR, PSA, GAPDH, α-Tubulin, apoptosis markers and cell cycle regulators. Following exposure to primary antibodies, the membranes were washed with buffer (3×, 5 minutes each at room temperature) followed by incubation with relevant secondary antibodies for 1 hour at 24° C. Finally, the membranes were washed with buffer and developed using the ECL Western blot detection reagent (GE Health Care, Buckinghamshire, UK). The ERG protein expression of the test azophenol compounds were normalized with GAPDH.
In brief, ERG positive VCaP cells in loganthmic growth phase were plated in 10 cm tissue culture dish at a cell density of 2×10^6 cells per dish. The plated cells were treated with 0, 0.2, 0.4, 0.6, 0.8 and 1 μM concentrations of each azophenol compound for a period of 48 hours. Cells from each dish were then processed for Western blot analysis and alterations in the expression of ERG protein were monitored. Both ERG and GAPDH protein band were quantified from each concentration using Image J (NIH) and ERG band density was normalized with corresponding GAPDH protein control. Relative density of ERG in each concentration was calculated and with Graphpad Prism 6 software, the IC50 of each compound was calculated.

SMILES | inhibition of VCaP cell growth (VCaP cells) | IC50 (VCaP cells) [nM] | IC50 (ERG protein) [nM]
Cc1cc(N=Nc2nccs2)c(O)cc1O [Compound 3] | inhibition | 4070 | 1350
Cc1cc(O)cc(O)c1N=Nc1nccs1 [Compound 4] | inhibition | 1120 | 1860
